Drawing on ChEMBL document CHEMBL1139050, “Specific interactions with intra- and intermolecular G-quadruplex DNA structures by hydrosoluble coronene derivatives: a new class of telomerase inhibitors” (Bioorg Med Chem, 2007), this text covers inhibition for four molecules.

This test deals with Telomerase reverse transcriptase (Homo sapiens) (UniProt O14746). As to the kind of experiment: Inhibition of telomerase at 10 uM after 30 mins by TRAP assay.
Chain of Telomerase reverse transcriptase (Homo sapiens) (O14746 whole entry): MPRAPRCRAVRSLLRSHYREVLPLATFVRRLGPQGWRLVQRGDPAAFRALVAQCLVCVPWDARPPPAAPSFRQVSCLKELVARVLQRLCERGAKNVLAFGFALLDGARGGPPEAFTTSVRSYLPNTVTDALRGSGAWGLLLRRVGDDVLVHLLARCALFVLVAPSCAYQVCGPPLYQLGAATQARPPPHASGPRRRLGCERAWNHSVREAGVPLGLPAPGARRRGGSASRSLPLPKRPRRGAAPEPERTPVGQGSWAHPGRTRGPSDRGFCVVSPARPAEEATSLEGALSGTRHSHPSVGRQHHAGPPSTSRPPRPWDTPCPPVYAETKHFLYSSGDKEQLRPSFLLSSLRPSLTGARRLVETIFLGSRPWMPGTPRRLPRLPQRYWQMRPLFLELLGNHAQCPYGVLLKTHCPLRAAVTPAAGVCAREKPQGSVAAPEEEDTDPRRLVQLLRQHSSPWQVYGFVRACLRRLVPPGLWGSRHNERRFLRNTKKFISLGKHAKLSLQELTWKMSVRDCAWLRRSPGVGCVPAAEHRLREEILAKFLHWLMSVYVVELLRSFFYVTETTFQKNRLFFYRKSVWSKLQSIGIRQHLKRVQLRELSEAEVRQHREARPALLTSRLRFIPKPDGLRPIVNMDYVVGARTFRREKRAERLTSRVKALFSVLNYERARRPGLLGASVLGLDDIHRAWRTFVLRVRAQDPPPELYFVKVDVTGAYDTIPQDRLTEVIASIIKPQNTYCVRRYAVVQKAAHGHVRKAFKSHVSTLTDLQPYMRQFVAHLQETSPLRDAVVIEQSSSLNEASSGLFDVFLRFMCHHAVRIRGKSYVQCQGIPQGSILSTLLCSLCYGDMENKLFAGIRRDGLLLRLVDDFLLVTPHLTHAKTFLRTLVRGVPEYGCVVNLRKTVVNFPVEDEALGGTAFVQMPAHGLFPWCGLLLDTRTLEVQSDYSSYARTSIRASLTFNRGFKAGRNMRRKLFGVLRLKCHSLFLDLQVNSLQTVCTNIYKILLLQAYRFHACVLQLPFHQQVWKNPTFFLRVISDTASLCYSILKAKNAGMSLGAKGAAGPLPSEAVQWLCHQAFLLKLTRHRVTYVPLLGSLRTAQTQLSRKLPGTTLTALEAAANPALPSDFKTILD

In turn, `CN1CCN(CCc2cc3cc4c(=O)n(CCN5CCCCC5)c(=O)c5cc6c(CCN7CCN(C)CC7)cc7cc8c(=O)n(CCN9CCCCC9)c(=O)c9cc2c2c3c(c45)c6c7c2c89)CC1` had an inhibition of 44%. Molecule `CN(C)CCCn1c(=O)c2cc3cc(CCN4CCN(C)CC4)c4cc5c(=O)n(CCCN(C)C)c(=O)c6cc7cc(CCN8CCN(C)CC8)c8cc(c1=O)c2c1c3c4c(c65)c7c81` yielded an inhibition of 66%.

`CN(C)CCCn1c(=O)c2cc3cc(CCN4CCCCC4)c4cc5c(=O)n(CCCN(C)C)c(=O)c6cc7cc(CCN8CCCCC8)c8cc(c1=O)c2c1c3c4c(c65)c7c81` returned an inhibition of 52%.

On to `O=c1c2cc3cc(CCN4CCCCC4)c4cc5c(=O)n(CCN6CCCCC6)c(=O)c6cc7cc(CCN8CCCCC8)c8cc(c(=O)n1CCN1CCCCC1)c2c1c3c4c(c65)c7c81`, for which the inhibition came out at 38%.
